Reference: the NIST ThermoML archive (doi:10.1021/acs.jced.5b00197)
± gives the expanded uncertainty stated by the source.

Assays:
[1] = refractive index (Na D-line) (dimensionless); conditions: 94.64 kPa, Liquid, Standard Abbe refractometry
[2] = refractive index (other wavelength) (dimensionless); conditions: 94.64 kPa, Liquid, Standard Abbe refractometry
[3] = 96.64 kPa, Liquid, mechanical oscillator
[4] = refractive index (other wavelength) (dimensionless); xn = mol fraction of the nth substance listed; conditions: 94.64 kPa, Liquid, Standard Abbe refractometry, x2 = 0
[5] = refractive index (Na D-line) (dimensionless); xn = mol fraction of the nth substance listed; conditions: 94.64 kPa, Liquid, Standard Abbe refractometry, x2 = 0
[6] = xn = mol fraction of the nth substance listed; conditions: 96.64 kPa, Liquid, mechanical oscillator, x2 = 0

CC(=O)O [acetic acid]
Conditions	mass density, 293.15 K [kg/m3]	mass density, 298.15 K [kg/m3]	mass density, 303.15 K [kg/m3]	refractive index, 293.15 K	refractive index, 298.15 K	refractive index, 303.15 K
[1]	–	–	–	1.37224 ± 0.00036	1.37012 ± 0.00036	1.36809 ± 0.00036
[3]	1049.63 ± 4	1043.57 ± 4	1037.64 ± 4	–	–	–

refractive index, [2]
Conditions	Wavelength=404.7 nm	Wavelength=435.8 nm	Wavelength=486.1 nm	Wavelength=546.1 nm	Wavelength=587.6 nm	Wavelength=632.8 nm	Wavelength=644 nm	Wavelength=706.5 nm
293.15 K	1.38345 ± 0.00037	1.38034 ± 0.00037	1.37681 ± 0.00037	1.37386 ± 0.00036	1.3723 ± 0.00036	1.37087 ± 0.00036	1.37055 ± 0.00036	1.36896 ± 0.00036
298.15 K	1.38126 ± 0.00037	1.37816 ± 0.00037	1.37466 ± 0.00037	1.37174 ± 0.00036	1.37018 ± 0.00036	1.36876 ± 0.00036	1.36844 ± 0.00036	1.36686 ± 0.00036
303.15 K	1.37917 ± 0.00037	1.37611 ± 0.00037	1.37261 ± 0.00037	1.36968 ± 0.00036	1.36815 ± 0.00036	1.36675 ± 0.00036	1.36643 ± 0.00036	1.36485 ± 0.00036

Cc1ccccc1 [toluene]
Conditions	mass density, 293.15 K [kg/m3]	mass density, 298.15 K [kg/m3]	mass density, 303.15 K [kg/m3]	refractive index, 293.15 K	refractive index, 298.15 K	refractive index, 303.15 K
[1]	–	–	–	1.49687 ± 0.0004	1.49406 ± 0.0004	1.49124 ± 0.0004
[3]	866.75 ± 4	861.74 ± 4	856.81 ± 4	–	–	–

refractive index, [2]
Conditions	Wavelength=404.7 nm	Wavelength=435.8 nm	Wavelength=486.1 nm	Wavelength=546.1 nm	Wavelength=587.6 nm	Wavelength=632.8 nm	Wavelength=644 nm	Wavelength=706.5 nm
293.15 K	1.52597 ± 0.00048	1.51768 ± 0.00045	1.50826 ± 0.00043	1.50069 ± 0.00042	1.497 ± 0.00041	1.49379 ± 0.00041	1.49306 ± 0.00041	1.48975 ± 0.0004
298.15 K	1.52295 ± 0.00048	1.51473 ± 0.00045	1.50537 ± 0.00043	1.49785 ± 0.00042	1.49419 ± 0.00041	1.49101 ± 0.00041	1.49028 ± 0.00041	1.48697 ± 0.0004
303.15 K	1.51996 ± 0.00048	1.51177 ± 0.00045	1.50248 ± 0.00043	1.495 ± 0.00042	1.49137 ± 0.00041	1.4882 ± 0.00041	1.48748 ± 0.00041	1.48419 ± 0.0004

Cc1ccccc1 [toluene] + CC(=O)O
refractive index, [4]
Conditions	Wavelength=404.7 nm	Wavelength=435.8 nm	Wavelength=486.1 nm	Wavelength=546.1 nm	Wavelength=587.6 nm	Wavelength=632.8 nm	Wavelength=644 nm	Wavelength=706.5 nm
293.15 K	1.52597 ± 0.00048	1.51768 ± 0.00045	1.50826 ± 0.00043	1.50069 ± 0.00042	1.497 ± 0.00041	1.49379 ± 0.00041	1.49306 ± 0.00041	1.48975 ± 0.0004
298.15 K	1.52295 ± 0.00048	1.51473 ± 0.00045	1.50537 ± 0.00043	1.49785 ± 0.00042	1.49419 ± 0.00041	1.49101 ± 0.00041	1.49028 ± 0.00041	1.48697 ± 0.0004
303.15 K	1.51996 ± 0.00048	1.51177 ± 0.00045	1.50248 ± 0.00043	1.495 ± 0.00042	1.49137 ± 0.00041	1.4882 ± 0.00041	1.48748 ± 0.00041	1.48419 ± 0.0004

Conditions	mass density, 293.15 K [kg/m3]	mass density, 298.15 K [kg/m3]	mass density, 303.15 K [kg/m3]	refractive index, 293.15 K	refractive index, 298.15 K	refractive index, 303.15 K
[5]	–	–	–	1.49687 ± 0.0004	1.49406 ± 0.0004	1.49124 ± 0.0004
[6]	866.75 ± 4	861.74 ± 4	856.81 ± 4	–	–	–

O [water]
Conditions	mass density, 298.15 K [kg/m3]	mass density, 303.15 K [kg/m3]	refractive index, 293.15 K	refractive index, 298.15 K	refractive index, 303.15 K
[1]	–	–	1.33308 ± 0.0011	1.33257 ± 0.0011	1.33198 ± 0.0011
[3]	996.61 ± 6.3	994.87 ± 6.3	–	–	–

refractive index, [2]
Conditions	Wavelength=404.7 nm	Wavelength=435.8 nm	Wavelength=486.1 nm	Wavelength=546.1 nm	Wavelength=587.6 nm	Wavelength=632.8 nm	Wavelength=644 nm	Wavelength=706.5 nm
293.15 K	1.34276 ± 0.0011	1.34021 ± 0.0011	1.33716 ± 0.0011	1.33454 ± 0.0011	1.33313 ± 0.0011	1.33183 ± 0.0011	1.33153 ± 0.0011	1.33003 ± 0.0011
298.15 K	1.34222 ± 0.0011	1.33968 ± 0.0011	1.33665 ± 0.0011	1.33402 ± 0.0011	1.33262 ± 0.0011	1.33132 ± 0.0011	1.33102 ± 0.0011	1.32954 ± 0.0011
303.15 K	1.34161 ± 0.0011	1.33909 ± 0.0011	1.33604 ± 0.0011	1.33344 ± 0.0011	1.33203 ± 0.0011	1.33073 ± 0.0011	1.33044 ± 0.0011	1.32897 ± 0.0011

O [water] + CC(=O)O
refractive index, [4]
Conditions	Wavelength=404.7 nm	Wavelength=435.8 nm	Wavelength=486.1 nm	Wavelength=546.1 nm	Wavelength=587.6 nm	Wavelength=632.8 nm	Wavelength=644 nm	Wavelength=706.5 nm
293.15 K	1.34276 ± 0.0011	1.34021 ± 0.0011	1.33716 ± 0.0011	1.33454 ± 0.0011	1.33313 ± 0.0011	1.33183 ± 0.0011	1.33153 ± 0.0011	1.33003 ± 0.0011
298.15 K	1.34222 ± 0.0011	1.33968 ± 0.0011	1.33665 ± 0.0011	1.33402 ± 0.0011	1.33262 ± 0.0011	1.33132 ± 0.0011	1.33102 ± 0.0011	1.32954 ± 0.0011
303.15 K	1.34161 ± 0.0011	1.33909 ± 0.0011	1.33604 ± 0.0011	1.33344 ± 0.0011	1.33203 ± 0.0011	1.33073 ± 0.0011	1.33044 ± 0.0011	1.32897 ± 0.0011

Conditions	mass density, 298.15 K [kg/m3]	mass density, 303.15 K [kg/m3]	refractive index, 293.15 K	refractive index, 298.15 K	refractive index, 303.15 K
[5]	–	–	1.33308 ± 0.0011	1.33257 ± 0.0011	1.33198 ± 0.0011
[6]	996.61 ± 6.3	994.87 ± 6.3	–	–	–
